biological target: SMYD2 (Homo sapiens (Human), UniProt Q9NRG4); assay: SMYD2 biochemical assay (SMYD2 enzyme assay on peptide substrate, 3H-SAM Flashplate); conditions: read-out: SMYD2 Biochem IC50; IC50 values are an average of n = 1 to n = 50
Sequence (Q9NRG4 whole entry): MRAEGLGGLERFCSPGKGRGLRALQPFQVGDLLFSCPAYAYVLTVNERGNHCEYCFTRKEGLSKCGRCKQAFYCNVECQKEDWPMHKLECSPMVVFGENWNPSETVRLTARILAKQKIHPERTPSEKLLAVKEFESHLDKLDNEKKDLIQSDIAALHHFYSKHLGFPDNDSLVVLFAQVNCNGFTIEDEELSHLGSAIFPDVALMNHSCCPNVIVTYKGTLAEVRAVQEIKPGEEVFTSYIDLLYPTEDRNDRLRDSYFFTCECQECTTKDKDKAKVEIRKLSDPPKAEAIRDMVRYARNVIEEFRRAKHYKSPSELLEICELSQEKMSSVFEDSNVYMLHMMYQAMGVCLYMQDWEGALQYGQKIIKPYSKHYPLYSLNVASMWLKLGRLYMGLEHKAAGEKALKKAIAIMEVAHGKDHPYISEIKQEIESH

Row | SMILES | IC50 [nM]
1 | O=C(NC1CN(Cc2cnn(Cc3ccccc3)c2)C1)c1ncc(C2CC2)[nH]1 [compound 986, N-(1-((1-benzyl-1H-pyrazol-4-yl)methyl)azetidin-3-yl)-5-cyclopropyl-1H-imidazole-2-carboxamide] | > 50000
2 | O=C(NC1CN(Cc2cnn(Cc3cccc(Cl)c3)c2)C1)c1cn(C2CC2)nn1 [compound 987, N-(1-((1-(3-chlorobenzyl)-1H-pyrazol-4-yl)methyl)azetidin-3-yl)-1-cyclopropyl-1H-1,2,3-triazole-4-carboxamide] | 24
3 | O=C(NC1CN(Cc2ccc(OCc3nncs3)cc2)C1)c1cn(C2CC2)nn1 [compound 988, N-(1-(4-((1,3,4-thiadiazol-2-yl)methoxy)benzyl)azetidin-3-yl)-1-cyclopropyl-1H-1,2,3-triazole-4-carboxamide] | 1900
4 | CC(c1cc(Cl)ccc1Oc1ccc(F)cc1)N1CC(NC(=O)c2cn(C3CC3)nn2)C1 (stereo not drawn) [compound 989, N-(1-(1-(5-chloro-2-(4-fluorophenoxy)phenyl)ethyl)azetidin-3-yl)-1-cyclopropyl-1H-1,2,3-triazole-4-carboxamide] | > 50000
5 | O=C(NC1CN(Cc2cnn(Cc3nccs3)c2)C1)c1cn(C2CC2)nn1 [compound 991, 1-cyclopropyl-N-(1-((1-(thiazol-2-ylmethyl)-1H-pyrazol-4-yl)methyl)azetidin-3-yl)-1H-1,2,3-triazole-4-carboxamide] | 760
6 | O=C(NC1CN(Cc2ccc(OCc3ccccn3)cc2)C1)c1cn(C2CC2)nn1 [compound 992, 1-cyclopropyl-N-(1-(4-(pyridin-2-ylmethoxy)benzyl)azetidin-3-yl)-1H-1,2,3-triazole-4-carboxamide] | 2700
7 | Cc1ccc(Cn2cc(CN3CC(NC(=O)c4cn(C5CC5)nn4)C3)cn2)cc1 [compound 993, 1-cyclopropyl-N-(1-((1-(4-methylbenzyl)-1H-pyrazol-4-yl)methyl)azetidin-3-yl)-1H-1,2,3-triazole-4-carboxamide] | 16
8 | CC(c1ccc(=O)[nH]c1)N1CC(NC(=O)c2cn(C3CC3)nn2)C1 (stereo not drawn) [compound 994, 1-cyclopropyl-N-(1-(1-(6-oxo-1,6-dihydropyridin-3-yl)ethyl)azetidin-3-yl)-1H-1,2,3-triazole-4-carboxamide] | 5400
9 | COc1ccccc1Cn1cc(CN2CC(NC(=O)c3cn(C4CC4)nn3)C2)cn1 [compound 995, 1-cyclopropyl-N-(1-((1-(2-methoxybenzyl)-1H-pyrazol-4-yl)methyl)azetidin-3-yl)-1H-1,2,3-triazole-4-carboxamide] | 1300
10 | O=C(NC1CN(Cc2ccc(OCc3cscn3)cc2)C1)c1cn(C2CC2)nn1 [compound 999, 1-cyclopropyl-N-(1-(4-(thiazol-4-ylmethoxy)benzyl)azetidin-3-yl)-1H-1,2,3-triazole-4-carboxamide] | 1100
11 | CC(NC(=O)c1cn(C2CC2)nn1)C1CCCCN1 (stereo not drawn) [compound 1000, 1-cyclopropyl-N-(1-(piperidin-2-yl)ethyl)-1H-1,2,3-triazole-4-carboxamide] | > 50000
12 | O=C(NC1CN(Cc2cnn(CC3CCC3)c2)C1)c1cn(C2CC2)nn1 [compound 1001, N-(1-((1-(cyclobutylmethyl)-1H-pyrazol-4-yl)methyl)azetidin-3-yl)-1-cyclopropyl-1H-1,2,3-triazole-4-carboxamide] | 1400
13 | COc1ccc(C(C)N2CC(NC(=O)c3cn(C4CC4)nn3)C2)c(Cl)c1 (stereo not drawn) [compound 1002, N-(1-(1-(2-chloro-4-methoxyphenyl)ethyl)azetidin-3-yl)-1-cyclopropyl-1H-1,2,3-triazole-4-carboxamide] | 88
14 | CC(NC(=O)c1cc(C2CC2)cnn1)C1CCCCN1 (stereo not drawn) [compound 1003, 5-cyclopropyl-N-(1-(piperidin-2-yl)ethyl)pyridazine-3-carboxamide] | 19000
15 | COc1cccc(C(C)N2CC(NC(=O)c3cc(C4CC4)ccn3)C2)c1OC (stereo not drawn) [compound 1005, 4-cyclopropyl-N-(1-(1-(2,3-dimethoxyphenyl)ethyl)azetidin-3-yl)picolinamide] | 130
16 | O=C(NC1CN(Cc2cnn(CC3CC3)c2)C1)c1cn(C2CC2)nn1 [compound 1006, 1-cyclopropyl-N-(1-((1-(cyclopropylmethyl)-1H-pyrazol-4-yl)methyl)azetidin-3-yl)-1H-1,2,3-triazole-4-carboxamide] | 1700
17 | O=C(NC1CN(Cc2cnn(Cc3ccccc3)c2)C1)c1nnc(C2CC2)s1 [compound 1007, N-(1-((1-benzyl-1H-pyrazol-4-yl)methyl)azetidin-3-yl)-5-cyclopropyl-1,3,4-thiadiazole-2-carboxamide] | 72
18 | CC(c1cccc(OCCN)c1Cl)N1CC(NC(=O)c2cn(C3CC3)nn2)C1 (stereo not drawn) [compound 1009, N-(1-(1-(3-(2-aminoethoxy)-2-chlorophenyl)ethyl)azetidin-3-yl)-1-cyclopropyl-1H-1,2,3-triazole-4-carboxamide] | 5700
19 | CC(=O)Nc1ccc(COc2ccc(C(C)N3CC(NC(=O)c4cn(C5CC5)nn4)C3)cc2)cc1 (stereo not drawn) [compound 1020, N-(1-(1-(4-((4-acetamidobenzyl)oxy)phenyl)ethyl)azetidin-3-yl)-1-cyclopropyl-1H-1,2,3-triazole-4-carboxamide] | 950
20 | O=C(NC1CN(Cc2cnn(Cc3ccccc3)c2)C1)c1nnc(C2CC2)o1 [compound 1021, N-(1-((1-benzyl-1H-pyrazol-4-yl)methyl)azetidin-3-yl)-5-cyclopropyl-1,3,4-oxadiazole-2-carboxamide] | 65
21 | O=C(NC1CN(Cc2cnn(Cc3ccccc3)c2)C1)c1cn(C2CC2)cn1 [compound 1022, N-(1-((1-benzyl-1H-pyrazol-4-yl)methyl)azetidin-3-yl)-1-cyclopropyl-1H-imidazole-4-carboxamide] | 73
22 | CN1[C@@H]2CC[C@H]1C[C@H](NC(=O)c1cc(C3CC3)cnn1)C2 [compound 1023, 5-cyclopropyl-N-((1R,3s,5S)-8-methyl-8-azabicyclo[3.2.1]octan-3-yl)pyridazine-3-carboxamide] | 6300
23 | CN1[C@@H]2CC[C@H]1C[C@@H](NC(=O)c1cc(C3CC3)cnn1)C2 [compound 1024, 5-cyclopropyl-N-((1R,3r,5S)-8-methyl-8-azabicyclo[3.2.1]octan-3-yl)pyridazine-3-carboxamide] | > 50000
24 | Cn1cc(COc2ccc(CN3CC(NC(=O)c4cn(C5CC5)nn4)C3)cc2)cn1 [compound 1025, 1-cyclopropyl-N-(1-(4-((1-methyl-1H-pyrazol-4-yl)methoxy)benzyl)azetidin-3-yl)-1H-1,2,3-triazole-4-carboxamide] | 1200

biological target: T1, SMYD3 (Homo sapiens (Human), UniProt Q9H7B4); assay: SMYD3 biochemical assay (SMYD3 enzyme assay on MEKK2 protein substrate, 3H-SAM scintillation proximity assay); conditions: read-out: SMYD3 Biochem IC50
T1 sequence (Q9H7B4 whole entry): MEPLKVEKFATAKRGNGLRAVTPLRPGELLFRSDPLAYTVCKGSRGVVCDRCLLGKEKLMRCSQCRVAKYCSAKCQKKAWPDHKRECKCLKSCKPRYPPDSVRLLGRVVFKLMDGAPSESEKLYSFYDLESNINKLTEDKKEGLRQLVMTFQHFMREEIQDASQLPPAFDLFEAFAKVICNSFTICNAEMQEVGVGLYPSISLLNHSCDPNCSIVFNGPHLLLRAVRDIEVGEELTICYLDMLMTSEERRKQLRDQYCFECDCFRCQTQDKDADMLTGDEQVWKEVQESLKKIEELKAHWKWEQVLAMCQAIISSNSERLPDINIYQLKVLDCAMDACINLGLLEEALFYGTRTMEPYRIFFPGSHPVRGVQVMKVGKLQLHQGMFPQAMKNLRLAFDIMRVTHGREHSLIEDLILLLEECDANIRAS
How it was run: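 Detection used scintillation proximity beads to capture ³H-methylated GST-MEKK2 after quench with 100 uM final cold SAM. The reaction was started by SAM/MEKK2 addition after a 30 min RT compound–enzyme preincubation. Enzyme was tag-free full-length human SMYD3 from E. coli, in buffer of 25 mM Tris-Cl pH 8.0, 1 mM TCEP, 0.005% BSG, 0.005% Tween 20.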

Row | SMILES | IC50 [nM]
25 | CC(NC(=O)c1cc2c(cc1Cl)NC(=O)C2)C1CCN(C(=O)[C@H](C)N)CC1 (stereo partly drawn) [Cpd. No. 490, N-(1-(1-((S)-2-aminopropanoyl)piperidin-4-yl)ethyl)-6-chloro-2-oxoindoline-5-carboxamide] | 430

biological target: T1, SMYD3; assay: SMYD3 cell assay (Trimethyl-MEKK2 In-Cell Western in 293T/17 cells transfected with MEKK2-flag and SMYD3); format: cell-based; conditions: Table 3A; average of n = 1 to n = 50; read-out: SMYD3 cell IC50
From the text: Trimethyl-MEKK2-in-Cell Western Assay
MEM/Glutamax medium, Optimem Reduced Serum medium, penicillin-streptomycin, 0.05% trypsin and 1×D-PBS were purchased from Life Technologies, Grand Island, N.Y., USA. PBS-10× was purchased from Ambion, Life Technologies, Grand Island, N.Y., USA. PBS with Tween 20 (PBST (10×)) was purchased from KPL, Gaithersburg, Md., USA. Tet System FBS-approved FBS US Source was purchased from Clontech, Mountain View, Calif., USA. Odyssey blocking buffer, 800CW goat anti-rabbit IgG (H+L) antibody, 680CW Goat anti-mouse IgG (H+L) and Licor Odyssey infrared scanner were purchased from Licor Biosciences, Lincoln, Nebr., USA. Tri-methyl-Lysine [A260]-MEKK2 antibody, MEKK2 and SMYD3 plasmids were made at Epizyme. Anti-flag monoclonal mouse antibody was purchased from Sigma, St. Louis, Mo., USA. Methanol was purchased from VWR, Franklin, Mass., USA. 10% Tween 20 was purchased from KPL, Inc., Gaithersburg, Md., USA. Fugene was purchased from Promega, Madison, Wis., USA. The Biotek ELx405 was purchased from BioTek, Winooski, Vt., USA. The multidrop combi was purchased from Thermo Scientific, Waltham, Mass., USA.
Cell Treatment, in Cell Western (ICW) for Detection of Trimethyl-Lysine-MEKK2 and MEKK2.
Plasmids were prepared for delivery to cells by first mixing 1350 μL Opti-MEM with Fugene (81 μL) in a sterile Eppendorf and incubated for five minutes at room temperature (RT). […] Entire volume of Opti-MEM/Fugene mixture was then added to a microfuge tube containing DNA plasmid, mixed and then incubated ×15 minutes at RT. […] Medium was then removed, and cells were washed once with PBS in the flask. Trypsin 0.05% (3 mL) was added and cells incubated for three minutes. Room temperature MEM+10% Tet system FBS was added and cells were mixed gently, and counted using the Vi-cell. Cells were seeded at 100,000 cells/mL in 50 μL MEM/10% Tet FBS/Pen/Strep to a 384 well black/clear poly-D-lysine coated plate containing test agent diluted in DMSO. The final top concentration of test compound was 40 μM. […] Plates were incubated ×30 minutes at RT in low-airflow area, followed by incubation at 37° C. under 5% CO2 for 24 hours. Medium was aspirated from all wells of assay plates prior to fixation and permeabilization with ice cold (−20° C.) methanol (90 μL/well) for ten minutes. Plates were rinsed with PBS three times on BioTek ELx405. PBS was removed with a final aspiration, and Odyssey blocking buffer (50 μL/well) was added to each well and incubated for one hour at RT. Primary antibody solution was prepared (anti-trimethyl-MEKK2 at 1:600 dilution plus mouse anti-flag antibody at 1:10,000 dilution in diluent (Odyssey Blocking buffer+0.1% Tween 20)) and 20 μL per well was dispensed using the Multidrop Combi. Assay plates were then sealed with foil, and incubated overnight at 4° C. Plates were washed five times with PBS-Tween (1×) on Biotek ELx405 and blotted on paper towel to remove excess reagent.
First, the ratio for each well was determined by:
Each plate included fourteen control wells of DMSO only treatment (Minimum Inhibition) as well as fourteen control wells for maximum inhibition (Background). The average of the ratio values for each control type was calculated and used to determine the percent inhibition for each test well in the plate. Reference compound was serially diluted two-fold in DMSO for a total of nine test concentrations, beginning at 40 μM. Percent inhibition was calculated (below).
Non-linear regression curves were generated to calculate the IC50 and dose-response relationship using triplicate wells per concentration of compound.

Row | SMILES | IC50 [µM]
26 | C[C@H]1CC(NC(=O)c2cc3c(cc2Cl)NC(=O)C3)CCN1C(=O)[C@H]1CC[C@H](N)CC1 (stereo partly drawn) [compound 640, N-((2S)-1-((1r,4S)-4-aminocyclohexane-1-carbonyl)-2-methylpiperidin-4-yl)-6-chloro-2-oxoindoline-5-carboxamide] | ≥ 10

same assay, conditions: read-out: SMYD3 Cell IC50

Row | SMILES | IC50 [µM]
27 | CC(NC(=O)c1cc2c(cc1Cl)NC(=O)C2)C1CCN(C(=O)[C@H](C)N)CC1 (stereo partly drawn) [Cpd. No. 490, N-(1-(1-((S)-2-aminopropanoyl)piperidin-4-yl)ethyl)-6-chloro-2-oxoindoline-5-carboxamide] | > 40
